# Values joined by “and” are separate entries in the source; they are usually repeats but may differ in a detail not shown here. Identical values can stand only once.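 Tested at 5 concentrations; 48 h exposure; 96-well plates; endpoints linearly interpolated, else capped at highest concentration. Abbreviation: GI50, concentration required for 50% inhibition of growth. TGI denotes the concentration required for complete inhibition of growth.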
# Columns and labels:
# Assay in all cases: inhibition of tumour cell growth, NCI panel, 48 h
# LOX IMVI melanoma = test system: LOX IMVI melanoma
# NCI-H226 lung = test system: NCI-H226 lung
# RXF 393 renal = test system: RXF 393 renal
# MALME-3M melanoma = test system: MALME-3M melanoma
# CCRF-CEM leukemia = test system: CCRF-CEM leukemia
# A498 renal = test system: A498 renal
# PC-3 prostate = test system: PC-3 prostate
# RPMI-8226 leukemia = test system: RPMI-8226 leukemia
# HT29 colon = test system: HT29 colon
# HCT-15 colon = test system: HCT-15 colon
Structure (SMILES),GI50 (LOX IMVI melanoma),TGI (LOX IMVI melanoma),GI50 (NCI-H226 lung),TGI (NCI-H226 lung),GI50 (RXF 393 renal),TGI (RXF 393 renal),GI50 (MALME-3M melanoma),TGI (MALME-3M melanoma),GI50 (CCRF-CEM leukemia),TGI (CCRF-CEM leukemia),GI50 (A498 renal),TGI (A498 renal),GI50 (PC-3 prostate),TGI (PC-3 prostate),GI50 (RPMI-8226 leukemia),TGI (RPMI-8226 leukemia),GI50 (HT29 colon),TGI (HT29 colon),GI50 (HCT-15 colon),TGI (HCT-15 colon)
C[C@]12CC[C@@H]3c4cc(O)c(O)cc4CC[C@H]3[C@@H]1CC[C@@H]2O,5.97 µM,23.6 µM,26.8 µM,> 100 µM,2.44 µM,19 µM,0.708 µM,44.4 µM,1.67 µM,20.2 µM,19.7 µM,62.3 µM,10.5 µM,> 100 µM,3.99 µM,30.3 µM,27.2 µM,61.3 µM,0.877 µM,24.8 µM
O=C(/C(=C/c1ccc([N+](=O)[O-])cc1)SCc1ccc(Cl)cc1)c1ccc(F)cc1,1.63 µM,3.1 µM,9.67 µM,> 41.6 µM,5.75 µM,18.3 µM,3.22 µM,12.3 µM,1.97 µM,> 100 µM,13.9 µM,38.4 µM,2.12 µM,5.74 µM,0.81 µM,4 µM,2 µM,4.12 µM,1.9 µM,4.26 µM
N/C(=N/N=C/c1ccccc1)N/N=C\c1ccccc1,6.27 µM,84.7 µM,12.3 µM,> 100 µM,2.46 µM,8.48 µM,6.84 µM,27.2 µM,5.13 µM,> 100 µM,6.03 µM,> 100 µM,6.21 µM,> 100 µM,5.21 µM,29.7 µM,3.25 µM,52 µM,3.72 µM,30.3 µM
COc1ccc2c(c1)oc(=O)c1cc(OC)ccc12,> 100 µM,> 100 µM,> 100 µM,> 100 µM,> 100 µM,> 100 µM,> 100 µM,> 100 µM,> 100 µM,> 100 µM,1.56 µM,99 µM,> 100 µM,> 100 µM,> 100 µM,> 100 µM,> 100 µM,> 100 µM,> 100 µM,> 100 µM
CCCCCCCCC/C(=N\NC(=O)c1ccncc1)c1ccc(O)c(O)c1O,0.0937 µM,11.9 µM,0.271 µM,14.7 µM,0.168 µM,5.2 µM,0.491 µM,> 100 µM,0.0426 µM,3.63 µM,1.56 µM,> 100 µM,1.6 µM,> 100 µM,0.195 µM,31.5 µM,0.513 µM,32.9 µM,0.0635 µM,> 100 µM
c1ccc2cc(NCNc3ccc4ccccc4c3)ccc2c1,,25.9 µM,,46.5 µM,,29.9 µM,,20 µM,,62.6 µM,,45.6 µM,,> 58.3 µM,,29.1 µM,,41.3 µM,,46.4 µM
COc1cc(C(=O)N2CCN(c3ccccc3)CC2)c2ccccc2n1,0.086 µM,> 52 µM,12.7 µM,> 100 µM,0.0927 µM,> 100 µM,0.0484 µM,> 100 µM,0.128 µM,> 100 µM,0.0226 µM,0.357 µM,0.0846 µM,> 100 µM,0.247 µM,> 100 µM,0.041 µM,10.3 µM,0.149 µM,> 100 µM
C[C@]12CC[C@@H]3c4cc(OC(F)F)c(OS(N)(=O)=O)cc4CC[C@H]3[C@@H]1CC[C@@H]2OS(N)(=O)=O,1.25 µM,19.1 µM,4.24 µM,33.2 µM,4.16 µM,16.1 µM,2.35 µM,22 µM,,> 70.7 µM,0.934 µM,4.02 µM,1.41 µM,30.6 µM,1.03 µM,35.4 µM,2.25 µM,22.5 µM,0.593 µM,15.8 µM
Cc1ccc(NC(=O)c2cc3ccccc3c(N=Nc3cc(S(=O)(=O)O)ccc3O)c2O)c(C)c1,,> 100 µM,,> 100 µM,,63.6 µM,,63.8 µM,,19.6 µM,,> 100 µM,,> 100 µM,,> 100 µM,,58.3 µM,,> 100 µM
CC1(C)CC[C@]2(C(=O)O)CC[C@]3(C)C(=CC[C@@H]4[C@@]5(C)C[C@H](O)[C@H](O)[C@@](C)(C(=O)O)[C@@H]5CC[C@]43C)[C@@H]2C1,,> 100 µM,,> 100 µM,,> 100 µM,,> 100 µM,,> 100 µM,,> 100 µM,,> 100 µM,,> 100 µM,,> 100 µM,,> 100 µM
O=C(O)C(C(=O)O)P(=S)(S)c1ccccc1 (configuration not stated),,> 100 µM,,> 100 µM,,> 100 µM,,> 100 µM,,> 100 µM,,> 100 µM,,> 100 µM,,> 100 µM,,> 100 µM,,> 100 µM
C=C1C(=O)O[C@H]2[C@H]1CC/C(C=Nc1c(N)cc(C(F)(F)F)cc1C(F)(F)F)=C\CC[C@@]1(C)O[C@@H]21,1.07 µM,2.3 µM,1.43 µM,4.11 µM,1.24 µM,2.74 µM,2 µM,3.95 µM,0.55 µM,> 100 µM,1.49 µM,3.51 µM,1.54 µM,4.4 µM,0.441 µM,3.26 µM,1.13 µM,3.1 µM,1.05 µM,3.73 µM
Cc1nc(-c2nc(-c3ccc(OC(F)(F)F)cc3)no2)nn1Cc1cccc(N2CCC(S(C)(=O)=O)CC2)c1,0.012 µM,> 100 µM,0.931 µM,41.4 µM,5.88 µM,44.4 µM,> 34.3 µM,> 76.8 µM,7.41 µM,> 100 µM,< 0.0198 µM,17.1 µM,3.59 µM,55.2 µM,,> 100 µM,> 25 µM,> 100 µM,> 21.7 µM,> 100 µM
O=C1NC2C(=CC(O)C(O)C2O)c2cc3c(cc21)OCO3 (configuration not stated),0.115 µM,0.67 µM and 1.53 µM,0.598 µM and 0.388 µM,4.46 µM and 2.34 µM,0.589 µM,0.805 µM and 1.43 µM and 2.16 µM,0.426 µM and 0.193 µM,1.29 µM and 1.86 µM,0.154 µM and 0.115 µM,0.875 µM and 3.55 µM,0.904 µM and 0.568 µM,3.64 µM and 2.69 µM,,2.08 µM,0.5 µM and 0.147 µM,0.908 µM and 1.67 µM,0.273 µM,3.58 µM and 5.95 µM,0.406 µM and 0.216 µM,9.97 µM and 6.41 µM
